Assay results: US20230331715A1, “SPIRO[3.3]HEPTANE DERIVATIVES FOR THE TREATMENT AND PROPHYLAXIS OF HEPATITIS B VIRUS INFECTION” (priority 2020, published 2023)

Columns and labels:
Format in all cases: cell-based
[1] = Cytotoxicity in PHH natural infection assay (Cell Counting Kit-8); conditions: human; HBV-infected PHH, CCK8, compound refreshed two times with 72-hour interval
Experimental: (§1) Detailed procedures regarding primary human hepatocyte (PHH) HBV natural infection assay are described as below. One tube of frozen PHH (10 million cells) is thawed in 37° C. water bath and then transferred to 20 mL of PHH thawing medium (Sigma, InVitroGRO HT Medium, Cat. S03319) with gently mixing. The cells were then centrifuged at […] for 5 min, the supernatant was discarded and the tube was refilled with 25 mL of PHH plating medium (Sigma, InVitroGRO CP Medium, Cat. S03317). The tube was shaken very gently to re-suspend all cells, and then 50 µl of cells were transferred to each well 384-well collagen I coated plate with appropriate liquid handling equipment, e.g. Integra VIAFLO384 or Agilent Bravo. The cells were then cultured for 24 hours in a cell incubator. For HBV infection, after PHH attachment on the culture plate, the plating medium was removed and replenished with PHH culture medium containing HBV virus. The PHH culture medium was prepared with Dulbecco’s Modified Eagle Medium (DMEM)/F12 (1: 1 in volume ratio) containing 10% fetal bovine serum (Gibco, Cat. 10099141), 5 ng/mL human epidermal growth factor (Gibco, Cat.PHG0311L), 20 ng/mL dexamethasone (Sigma, Cat.D4902-100mg), 250 ng/mL human recombinant insulin (Gibco, Cat.41400045) and 100 U/mL penicillin. HBV virus at 200 genome equivalent (GE) per cell with 4% PEG8000 (Sigma, Cat.P1458) containing culture medium were added to the PHH culture medium for infection. The cells were then cultured for 24 hours in cell incubator. Then the cell culture supernatant was removed. The HBV-infected PHH were cultured with sandwich culture method with PHH culture medium containing 1% DMSO and 0.25 mg/mL matrix gel for 72 hours. The supernatant was then refreshed with PHH culture medium containing different concentrations of testing compounds for two times with 72-hour interval. At the end of treatment, the supernatant was collected for viral markers measurements, including HBsAg, HBeAg, HBV DNA and cytotoxicity. HBsAg and HBeAg were detected using alphalisa method using their specific antibodies. For HBV DNA detection, HBV DNA Quantitative Fluorescence Diagnostic Kit (Sansure Biotech Inc.) was used following the manufacture’s protocol. Cytotoxicity was determined using Cell Counting Kit-8 (CCK8, Dojindo Molecular Technologies, Inc.).

HBsAg = experiment: PHH HBV natural infection assay, HBsAg (alphalisa); conditions: Hepatitis B virus, 72 h, read-out: HBsAg IC50, HBV-infected PHH, culture supernatant, compound refreshed two times with 72-hour interval, alphalisa
Experimental: as §1
(§2) The compounds of the present invention were tested for their capacity to inhibit HBsAg and HBeAg as described herein.

HBeAg = experiment: PHH HBV natural infection assay, HBeAg (alphalisa); conditions: Hepatitis B virus, 72 h, read-out: HBeAg IC50, HBV-infected PHH, culture supernatant, compound refreshed two times with 72-hour interval, alphalisa
Experimental: as §1, §2

O=C(NC1CC2(C1)CC(c1nc3cc(Cl)ccc3s1)C2)c1ccnc(S(=O)(=O)CC2CC2)c1 (stereo not drawn) [Example 39, N-[6-(5-chloro-1,3-benzothiazol-2-yl)spiro[3.3]heptan-2-yl]-2-(cyclopropylmethylsulfonyl)pyridine-4-carboxamide]
CC50 at 144 h [1]: > 10 µM | IC50 (HBsAg): 0.79 µM | IC50 (HBeAg): 0.34 µM

CS(=N)(=O)c1cc(C(=O)NC2CC3(C2)CC(c2nc4cc(Cl)ccc4s2)C3)ccn1 (stereo not drawn) [Example 40, N-[6-(5-chloro-1,3-benzothiazol-2-yl)spiro[3.3]heptan-2-yl]-2-(methylsulfonimidoyl)pyridine-4-carboxamide]
CC50 at 144 h [1]: > 10 µM | IC50 (HBsAg): 2.53 µM | IC50 (HBeAg): 2.41 µM

N=S(=O)(c1cc(C(=O)NC2CC3(C2)CC(c2nc4cc(Cl)ccc4s2)C3)ccn1)C1CC1 (stereo not drawn) [Example 41, N-[6-(5-chloro-1,3-benzothiazol-2-yl)spiro[3.3]heptan-2-yl]-2-(cyclopropylsulfonimidoyl)pyridine-4-carboxamide]
CC50 at 144 h [1]: > 10 µM | IC50 (HBsAg): 0.9 µM | IC50 (HBeAg): 0.67 µM

COc1cc(C(=O)NC2CC3(C2)CC(c2nc4cc(Cl)ccc4s2)C3)ccn1 (stereo not drawn) [Example 42, N-[6-(5-chloro-1,3-benzothiazol-2-yl)spiro[3.3]heptan-2-yl]-2-methoxy-pyridine-4-carboxamide]
CC50 at 144 h [1]: > 10 µM | IC50 (HBsAg): 3.12 µM | IC50 (HBeAg): 2.67 µM

CC(C)Oc1cc(C(=O)NC2CC3(C2)CC(c2nc4cc(Cl)ccc4s2)C3)ccn1 (stereo not drawn) [Example 43, N-[6-(5-chloro-1,3-benzothiazol-2-yl)spiro[3.3]heptan-2-yl]-2-isopropoxy-pyridine-4-carboxamide]
CC50 at 144 h [1]: > 10 µM | IC50 (HBsAg): 3.23 µM | IC50 (HBeAg): 2.86 µM

CNc1cc(C(=O)NC2CC3(C2)CC(c2nc4cc(Cl)ccc4s2)C3)ccn1 (stereo not drawn) [Example 44, N-[6-(5-chloro-1,3-benzothiazol-2-yl)spiro[3.3]heptan-2-yl]-2-(methylamino)pyridine-4-carboxamide]
CC50 at 144 h [1]: > 10 µM | IC50 (HBsAg): 3.24 µM | IC50 (HBeAg): 3.18 µM

O=C(NC1CC2(C1)CC(c1nc3cc(Cl)ccc3s1)C2)c1ccnc(NC2CC2)c1 (stereo not drawn) [Example 45, N-[6-(5-chloro-1,3-benzothiazol-2-yl)spiro[3.3]heptan-2-yl]-2-(cyclopropylamino)pyridine-4-carboxamide]
CC50 at 144 h [1]: > 10 µM | IC50 (HBsAg): 6.08 µM | IC50 (HBeAg): 5.18 µM

CN(C)c1cc(C(=O)NC2CC3(C2)CC(c2nc4cc(Cl)ccc4s2)C3)ccn1 (stereo not drawn) [Example 46, N-[6-(5-chloro-1,3-benzothiazol-2-yl)spiro[3.3]heptan-2-yl]-2-(dimethylamino)pyridine-4-carboxamide]
CC50 at 144 h [1]: > 10 µM | IC50 (HBsAg): 4.2 µM | IC50 (HBeAg): 3.35 µM

CCN(C)c1cc(C(=O)NC2CC3(C2)CC(c2nc4cc(Cl)ccc4s2)C3)ccn1 (stereo not drawn) [Example 47, N-[6-(5-chloro-1,3-benzothiazol-2-yl)spiro[3.3]heptan-2-yl]-2-[ethyl(methyl)amino]pyridine-4-carboxamide]
CC50 at 144 h [1]: > 10 µM | IC50 (HBsAg): 5.85 µM | IC50 (HBeAg): 4.8 µM

CCN(CC)c1cc(C(=O)NC2CC3(C2)CC(c2nc4cc(Cl)ccc4s2)C3)ccn1 (stereo not drawn) [Example 48, N-[6-(5-chloro-1,3-benzothiazol-2-yl)spiro[3.3]heptan-2-yl]-2-(diethylamino)pyridine-4-carboxamide]
CC50 at 144 h [1]: > 10 µM | IC50 (HBsAg): 5.92 µM | IC50 (HBeAg): 4.96 µM

CC(C)N(C)c1cc(C(=O)NC2CC3(C2)CC(c2nc4cc(Cl)ccc4s2)C3)ccn1 (stereo not drawn) [Example 49, N-[6-(5-chloro-1,3-benzothiazol-2-yl)spiro[3.3]heptan-2-yl]-2-[isopropyl(methyl)amino]pyridine-4-carboxamide]
CC50 at 144 h [1]: > 10 µM | IC50 (HBsAg): 3.14 µM | IC50 (HBeAg): 2.38 µM

O=C(NC1CC2(C1)CC(c1nc3cc(Cl)ccc3s1)C2)c1ccnc(N2CCCC2)c1 (stereo not drawn) [Example 50, N-[6-(5-chloro-1,3-benzothiazol-2-yl)spiro[3.3]heptan-2-yl]-2-pyrrolidin-1-yl-pyridine-4-carboxamide]
CC50 at 144 h [1]: > 10 µM | IC50 (HBsAg): 9.95 µM | IC50 (HBeAg): 9.63 µM

O=C(NC1CC2(C1)CC(c1nc3cc(Cl)ccc3s1)C2)c1ccnc(N2CCCCC2)c1 (stereo not drawn) [Example 51, N-[6-(5-chloro-1,3-benzothiazol-2-yl)spiro[3.3]heptan-2-yl]-2-(1-piperidyl)pyridine-4-carboxamide]
CC50 at 144 h [1]: > 10 µM | IC50 (HBsAg): 5.51 µM | IC50 (HBeAg): 4.35 µM

O=C(NC1CC2(C1)CC(c1nc3cc(Cl)ccc3s1)C2)c1ccnc(N2CCOCC2)c1 (stereo not drawn) [Example 52, N-[6-(5-chloro-1,3-benzothiazol-2-yl)spiro[3.3]heptan-2-yl]-2-morpholino-pyridine-4-carboxamide]
CC50 at 144 h [1]: > 10 µM | IC50 (HBsAg): 2.59 µM | IC50 (HBeAg): 2.79 µM
